Columns and labels:
OVX rats [1] = assay: Ovariectomized rat model: femoral BMD by dual-energy X-ray absorptiometry; type: in vivo; conditions: 4 weeks
Excerpt: (§1) In women, estrogen deficiency during the menopause results in increased bone turnover leading to bone loss. Ovariectomy in rats produces estrogen deficiency and increased bone turnover leading to trabecular bone loss similar to that observed in post-menopausal women (Kalu, D. N., Bone and Mineral 1991;15:175; Frost, H. M., Jee W. S. S., Bone and Mineral 1992;18:227; Wronski, T. J., Yen, C-F, Cells Materials 1991 ;(suppl. 1):69). The OVX rat is thus an appropriate model to evaluate compounds for the prevention and treatment of post-menopausal osteoporosis. The ability of PPTN to inhibit estrogen deficiency bone loss was assessed in 5-month-old OVX rats, since ovariectomy causes significant bone loss in the lumbar vertebrae, proximal tibia, and distal femoral metaphyses (Ke, H. Z., et al., Endocrin 1995;136:2435; Chen, H. K., et al., J Bone Miner Res 1995;10:1256).
(§2) Five-month-old OVX female rats were treated with PPTN at oral doses of 0.733, 7.33, 73.3, and 733 μg/kg/day, or 17α-ethynyl estradiol (EE) at 30 μg/kg/day (10 rats per subgroup) daily for 4 weeks. The oral treatment began 1 day after surgery. Groups of vehicle-treated sham rats (n=10) and vehicle-treated OVX rats (n=10) served as controls. Calcein at 10 mg/kg was injected s.c. to all rats 12 and 2 days before necropsy as a fluorochrome bone marker to measure bone dynamic histomorphometric parameters. The effects of PPTN on the following end points were determined: (a) serum osteocalcin, a biochemical marker of bone turnover, (b) bone mineral density of lumbar vertebrae and distal femoral metaphyses, (c) bone histomorphometry of fifth lumbar vertebral body and proximal tibial metaphyses.
Using dual-energy X-ray absorptiometry, the right femur of each rat was scanned ex vivo. Bone mineral density (BMD) of the distal femoral metaphyses (second 0.5 cm from the distal end of femur) and the proximal femur (the first 0.5 cm from the proximal end of femur, which contains the femoral head, neck, and greater trochanter) was determined.

MDA-MB-231 cells = assay: Inhibition of in vitro human breast tumor cell growth (ER-negative line); type: cell-based; conditions: MDA-MB-231 (ER-negative), 6 days incubation, direct cell counts
Method: The in vitro antiproliferative effects of (-)-cis-6-phenyl-5-[4-(2-pyrrolidin-1-yl-ethoxy)-phenyl]-5,6,7,8-tetrahydro-naphthalene-2-ol (PPTN) were tested using two types of human breast cancer cell lines: first, MCF-7 cells, which contain ER as well as progesterone receptors (PgR), and second, MDA-MB-231 cells, which lack ER and PgR, and enable the determination of an effect that is independent of the ER mechanism. The effect of PPTN on the growth of these different cell lines was determined by incubation of the cells with various compound concentrations for 6 days.
The antiproliferative effects were then determined by direct cell counts. PPTN inhibited the growth of the ER-positive cell line MCF-7.

OVX rats [2] = assay: Ovariectomized rat model: lumbar vertebral BMD by dual-energy X-ray absorptiometry; type: in vivo; conditions: 4 weeks
Excerpt: as §1, §2
The first to the sixth lumbar vertebrae from each rat were removed during necropsy. These were then scanned ex vivo using dual-energy X-ray absorptiometry. The scan images were analyzed, and bone area, bone mineral content (BMC), and bone mineral density (BMD) of whole lumbar vertebrae (WLV), and LV1 through LV6 were determined. […] The changes in BMC were similar to those observed in BMD. […]

OVX rats [3] = assay: Ovariectomized rat model: serum osteocalcin by radioimmunoassay; type: in vivo; conditions: daily for 4 weeks
Excerpt: as §1
Five-month-old OVX female rats were treated with PPTN at oral doses of 0.733, 7.33, 73.3, and 733 μg/kg/day, or 17α-ethynyl estradiol (EE) at 30 μg/kg/day (10 rats per subgroup) daily for 4 weeks. […] The effects of PPTN on the following end points were determined: (a) serum osteocalcin, a biochemical marker of bone turnover, (b) bone mineral density of lumbar vertebrae and distal femoral metaphyses, (c) bone histomorphometry of fifth lumbar vertebral body and proximal tibial metaphyses. […]

OVX rats [4] = assay: Ovariectomized rat model: bone histomorphometry of fifth lumbar vertebral body; type: in vivo; conditions: 4 weeks; for OVX-induced increase in bone formation rate (BFR) / percent eroded surface (index of osteoclastic bone resorption) compared with sham controls: lumbar vertebra
Excerpt: as §1, §2
In order to understand the cellular mechanism of bone-protective effects of PPTN at the tissue level, bone histomorphometric methods were used to determine the effects of PPTN on cancellous bone of the fifth lumbar vertebral body in OVX rats. Ovariectomy caused significant decreases in trabecular bone volume (trabecular bone area divided by marrow space area, expressed as percent) and trabecular number, and a significant increase in trabecular separation of the fifth lumbar vertebral body.

OVX rats [5] = assay: Ovariectomized rat model: histomorphometry of proximal tibial metaphyses; type: in vivo; conditions: 4 weeks
Excerpt: as §1, §2
In order to determine the effect of PPTN on long bone metaphyses, histomorphometric analyses were performed on the proximal tibiae.

[6] = PPTN at 73.3 or 733 μg/kg/day oral
[7] = PPTN at doses ≧7.33 μg/kg/day oral

SMILES: Oc1ccc2c(c1)CC[C@H](c1ccccc1)[C@@H]2c1ccc(OCCN2CCCC2)cc1 [PPTN, (-)-cis-6-phenyl-5-[4-(2-pyrrolidin-1-yl-ethoxy)-phenyl]-5,6,7,8-tetrahydro-naphthalene-2-ol]
- BMD of distal femoral metaphyses and proximal femur (OVX rats [1]; PPTN at 0.733 or 7.33 μg/kg/day oral): did not differ from OVX controls
- OVX-induced decreases in BMD of distal femoral metaphyses and proximal femur (OVX rats [1]; [6]): completely prevented the decreases
- inhibition of cell proliferation (MDA-MB-231 cells): did not inhibit cell proliferation
- lumbar vertebral BMD compared with both sham and OVX controls (OVX rats [2]; PPTN 73.3 μg/kg/day oral): increased significantly
- OVX-induced decrease in lumbar vertebral BMD (OVX rats [2]; PPTN at all dose levels (0.733, 7.33, 73.3, 733 μg/kg/day oral)): completely prevented
- OVX-induced increase in serum osteocalcin concentration (OVX rats [3]; [7]): completely prevented
- ED50 in preserving lumbar vertebral cancellous bone mass and structure (OVX rats [4]; OVX rats, oral): less than 0.733 μg/kg/day
- trabecular number of fifth lumbar vertebral body compared with sham controls (OVX rats [4]; [6]): significantly increased
- bone turnover rate, lumbar vertebra (OVX rats [4]; PPTN at all dose levels, oral): did not differ from sham controls
- OVX-induced increase in bone formation rate (BFR) (OVX rats [4]; PPTN at all dose levels, oral): inhibited this increase
- percent eroded surface (index of osteoclastic bone resorption) compared with sham controls (OVX rats [4]; PPTN at all dose levels, oral): significantly decreased
- OVX-induced changes in trabecular bone volume, trabecular number and trabecular separation of fifth lumbar vertebral body (OVX rats [4]; all doses of PPTN (0.733-733 μg/kg/day oral)): completely prevented
- proximal tibial trabecular bone volume (OVX rats [5]; PPTN at 0.733 μg/kg/day oral): no significant effect
- percent osteoclast surface compared with OVX controls (OVX rats [5]; PPTN at 0.733 μg/kg/day, proximal tibia): decreased significantly
- osteoclast number per millimeter of bone surface and percent osteoclast surface compared with both sham and OVX controls (OVX rats [5]; PPTN at 7.33, 73.3, or 733 μg/kg/day oral, proximal tibia): significantly decreased
- bone turnover rate in proximal tibial trabecular bone (OVX rats [5]; PPTN at doses of 7.33 to 733 μg/kg/day oral): did not differ from sham controls
- proximal tibial trabecular bone volume compared with OVX controls (OVX rats [5]; [7]): significantly greater

SMILES: C#C[C@]1(O)CC[C@H]2[C@@H]3CCc4cc(O)ccc4[C@H]3CC[C@@]21C [EE, 17α-ethynyl estradiol, reference compound]
- OVX-induced decrease in BMD of distal femoral metaphyses (OVX rats [1]; EE 30 μg/kg/day oral): prevented the decrease
- proximal femoral BMD (OVX rats [1]; EE 30 μg/kg/day oral): had no effect
- OVX-induced decrease in lumbar vertebral BMD (OVX rats [2]; EE 30 μg/kg/day oral): completely prevented
- OVX-induced increase in serum osteocalcin concentration (OVX rats [3]; EE 30 μg/kg/day oral): completely prevented
- OVX-induced changes in trabecular bone volume, trabecular number and trabecular separation of fifth lumbar vertebral body (OVX rats [4]; EE 30 μg/kg/day oral): completely prevented
- bone turnover rate, lumbar vertebra (OVX rats [4]; EE 30 μg/kg/day oral): did not differ from sham controls
- trabecular number of fifth lumbar vertebral body compared with sham controls (OVX rats [4]; EE 30 μg/kg/day oral): significantly increased
- OVX-induced increase in bone formation rate (BFR) (OVX rats [4]; EE 30 μg/kg/day oral): inhibited this increase
- percent eroded surface (index of osteoclastic bone resorption) compared with sham controls (OVX rats [4]; EE 30 μg/kg/day oral): significantly decreased
- bone turnover rate in proximal tibial trabecular bone (OVX rats [5]; EE 30 μg/kg/day oral): did not differ from sham controls
- osteoclast number per millimeter of bone surface and percent osteoclast surface compared with both sham and OVX controls (OVX rats [5]; EE 30 μg/kg/day oral, proximal tibia): significantly decreased

From patent publication US20010056099A1, “Method of reducing morbidity and the risk of mortality” (priority 2000, published 2001)
